Measured values published in patent US4251520A, “Glucofuranose derivatives” (priority 1976, dated 1981).
Where two headings read alike, the source gives them in different places.

Tests used:
[1] = test system: edema induced by carrageenan; assay: Anti-inflammatory activity, carrageenin-induced oedema; type: in vivo, rat; settings: for inhibition in vivo at 500 mg/kg: po, read-out: % inhibition of edema induced by carrageenan
Excerpt: Beginning, therefore, with D-glucose, we have prepared 1,2:5,6-di-O-isopropylidene-α-D-glucofuranose (II): [drawing 2] as well as 1,2-O-isopropylidene-α-D-glucofuranose and 1,2-O-isopropylidene-3,5,6-tri-O-benzyl-α-D-glucofuranose (1; Glen W. L., Myers G. S., Grant G. A., J. Chem. Soc., 2568/1951; (2) Meyer A. S., Reichstein T., Helv. Chim. Acta, 29, 139/1946; (3) Huber G., Rossi A., Helv. Chim. Acta, 51, 1185/1968) and have compared these compounds with (I) for anti-inflammatory activity against carrageenin-induced oedema (500 mg/kg, p.o. in rats).

[2] = Analgesic activity, protection from writhing; type: in vivo, mouse; settings: po, read-out: Analgesic activity, protection from writhing %
granuloma = assay: Granuloma cotton pellet test; settings: for inhibition in vivo at 200 mg/kg: Rattus norvegicus, po, read-out: % inhibition of granuloma; for Inhibitory activity in the granuloma cotton pellet test (in words): rat, in vivo
[3] = test system: edema induced by formalin; assay: Anti-inflammatory activity, formalin-induced edema; type: in vivo, rat; settings: po; for inhibition in vivo at 500 mg/kg: read-out: % inhibition of edema induced by formalin
edema induced by dextran = assay: Anti-inflammatory activity, dextran-induced edema; type: in vivo, rat; settings: po; for inhibition in vivo at 500 mg/kg: read-out: % inhibition of edema induced by dextran
Antipyretic activity = type: in vivo, rat; settings: for Antipyretic activity (potency in comparison with aspirin = 100): 400 mg/kg p.o. rat; for Antipyretic action (in words): rat, in vivo
[4] = Analgesic activity, hot plate test; type: in vivo, mouse; settings: po, read-out: Analgesic activity, increase of reaction time %
in vivo = settings: mouse, in vivo, po
capillary permeability [5] = settings: 500 mg/kg p.o. mouse
spasm by acetylcholine = assay: Antispasmodic activity in vitro, spasm by acetylcholine
spasm by histamine = assay: Antispasmodic activity in vitro, spasm by histamine
[6] = test system: spasms induced by histamine and acetylcholine; assay: Antispasmodic activity tests in vitro (overall)
capillary permeability [7] = assay: Capillary permeability test
[8] = test system: oedema induced by carrageenin, dextran and formalin; assay: Anti-inflammatory activity tests (oedema by carrageenin, dextran and formalin); type: in vivo; settings: rat
mouse = assay: in vivo; settings: oral route, even at a dose of 4,000 mg./kg.
[9] = Preliminary pharmacological screening (overall); type: in vivo
[10] = test system: edema induced by carrageenan; assay: Anti-inflammatory activity, carrageenin-induced oedema; type: in vivo; settings: po; at a dose of 200 mg/kg p.o., rat (footnote e)
[11] = 500 mg/kg p.o. mouse, hot plate test
[12] = at a dose of 400 mg/kg p.o., mouse (footnote d)
[13] = at a dose of 200 mg/kg p.o., rat (footnote e)

SMILES	inhibition in vivo at 200 mg/kg (granuloma)	Antipyretic activity (potency in comparison with aspirin = 100) (Antipyretic activity)	Antipyretic action (in words) (Antipyretic activity)	LD50 (in vivo)	Antispasmodic activity in vitro, ED50, inhib. of spasm by acetylcholine (spasm by acetylcholine)	Antispasmodic activity in vitro, ED50, inhib. of spasm by histamine (spasm by histamine)	inhibition in vivo at 500 mg/kg ([1]; 500 mg/kg p.o. rat)	inhibition in vivo at 500 mg/kg ([2]; 500 mg/kg p.o. mouse)	inhibition in vivo at 500 mg/kg ([3]; 500 mg/kg p.o. rat)	inhibition in vivo at 500 mg/kg (edema induced by dextran; 500 mg/kg p.o. rat)	change in vivo at 500 mg/kg [4, 11]	Anti-inflammatory potency compared with aspirin and phenylbutazone (in words) [8]	Inhibition of oedema induced by carrageenin, dextran and formalin, compared with (I) (in words) [8]	Capillary permeability, decrease % (capillary permeability [7]; 500 mg/kg p.o. mouse)	Oral toxicity / tolerance (in words) (mouse)	other results
CC1(C)OCC(C2OC3OC(C)(C)OC3C2O)O1 (stereo not shown)	0%	63%	present	4000 mg/kg	> 100 µg/mL	> 100 µg/mL	–	–	–	–	–	–	–	–	–	inhibition in vivo at 500 mg/kg ([1]; Rattus norvegicus): 33%; Anti-inflammatory activity compared with (I), preliminary tests ([1]; carrageenin-induced oedema, 500 mg/kg, p.o. in rats): fully comparable with that of (I); inhibition in vivo at 500 mg/kg ([2]; Mus musculus): 20%; inhibition in vivo at 500 mg/kg ([3]; Rattus norvegicus): 19%; inhibition in vivo at 500 mg/kg (edema induced by dextran; Rattus norvegicus): 0%; change in vivo at 500 mg/kg ([4]; Mus musculus): 0%; Capillary permeability, decrease % (capillary permeability [5]): 46%
CC(=O)Oc1ccccc1C(=O)O [Aspirin, reference compound]	12%	–	–	1000 mg/kg	> 100 µg/mL	> 100 µg/mL	53%	100%	29%	47%	70%	–	–	–	–	Antispasmodic activity (in words) [6]: inactive; Capillary permeability, decrease % (capillary permeability [7]; [12]): 73%
COC1C(C2COC(C)(C)O2)OC2OC(C)(C)OC21 (stereo not shown) [III]	0%	70%	retained	2000 mg/kg	> 100 µg/mL	100 µg/mL	51%	20%	25%	35%	20%	as potent as or more potent than aspirin and phenylbutazone	clearly more active than (I)	37%	–	–
C=CCOC1C(C2COC(C)(C)O2)OC2OC(C)(C)OC21 [IX, 3-O-allyl-1,2:5,6-di-O-isopropylidene-α-D-glucofuranose]	16%	44%	retained	> 4000 mg/kg	60 µg/mL	60 µg/mL	68%	20%	29%	39%	0%	as potent as or more potent than aspirin and phenylbutazone	clearly more active than (I)	43%	well tolerated	Inhibitory activity in the granuloma cotton pellet test (in words) (granuloma): some inhibitory activity; Activity against spasms produced by acetylcholine (in words) (spasm by acetylcholine): moderately active; Spectrum and potency of action in comparison with (I) (in words) [9]: analogous or even better spectrum and potency of action
CCCCC1C(=O)N(c2ccccc2)N(c2ccccc2)C1=O [Phenylbutazone, reference compound]	31%	85%	–	–	> 100 µg/mL	> 100 µg/mL	–	100%	–	–	10%	–	–	–	–	Antispasmodic activity (in words) [6]: inactive; inhibition in vivo at 200 mg/kg [3, 13]: 13%; inhibition in vivo at 200 mg/kg (edema induced by dextran; [13]): 15%; Capillary permeability, decrease % (capillary permeability [7]; [12]): 75%; inhibition in vivo at 200 mg/kg [10]: 52%
CCCCCOC1C(C2COC(C)(C)O2)OC2OC(C)(C)OC21 [VII, 3-n-Pentyl-1,2:5,6-di-O-isopropylidene-α-D-glucofuranose]	19%	0%	–	4000 mg/kg	> 100 µg/mL	> 100 µg/mL	62%	20%	48%	31%	0%	as potent as or more potent than aspirin and phenylbutazone	clearly more active than (I)	4%	–	Inhibitory activity in the granuloma cotton pellet test (in words) (granuloma): some inhibitory activity
CCCCCCCCCCCCCCCCOC1C(C2COC(C)(C)O2)OC2OC(C)(C)OC21 (stereo not shown) [VIII]	–	0%	–	> 4000 mg/kg	–	–	13%	20%	0%	0%	0%	–	–	22%	well tolerated	–
CC(=O)OC1C(C2COC(C)(C)O2)OC2OC(C)(C)OC21 [XII, 3-Acetyl-1,2:5,6-di-O-isopropylidene-α-D-glucofuranose]	–	0%	–	> 4000 mg/kg	> 100 µg/mL	> 100 µg/mL	21%	0%	9%	0%	20%	–	–	26%	well tolerated	–
CC1(C)OCC(C2OC3OC(C)(C)OC3C2OCc2ccccc2)O1 (stereo not shown) [XI]	–	8%	–	> 4000 mg/kg	> 100 µg/mL	> 100 µg/mL	39%	20%	21%	0%	0%	–	–	29%	well tolerated	–
